Measured values published in PMC7206119, “RIP1 inhibition blocks inflammatory diseases but not tumor growth or metastases” (Cell Death and Differentiation, 2019).

Tests used:
Experiment in all cases: biochemical
Parameters in all cases: DiscoverX kinase panel, active-site competition binding (KINOMEscan type), percent of control at one concentration
Settings in all cases: competition binding, percent of control
ABL2 = ABL2 (Homo sapiens, UniProt P42684)
CAMK1 = CAMK1 (Homo sapiens, UniProt Q14012)
CDK7 = CDK7 (Homo sapiens, UniProt P50613)
EPHB6 = EPHB6 (Homo sapiens, UniProt O15197)
FGFR2 = FGFR2 (Homo sapiens, UniProt P21802)
[1] = target: T1, JAK1(JH2domain-pseudokinase) (Homo sapiens, UniProt P23458)
T1 construct: JH2domain-pseudokinase

MEK1 = target: T2, MEK1 (Homo sapiens, UniProt Q02750)
T2 construct: gene MAP2K1

MST3 = target: T3, MST3 (Homo sapiens, UniProt Q9Y6E0)
T3 construct: gene STK24

NEK11 = NEK11 (Homo sapiens, UniProt Q8NG66)
PKMYT1 = PKMYT1 (Homo sapiens, UniProt Q99640)
PRKCD = PRKCD (Homo sapiens, UniProt Q05655)
RET = RET (Homo sapiens, UniProt P07949)
RIOK2 = RIOK2 (Homo sapiens, UniProt Q9BVS4)
RIPK2 = RIPK2 (Homo sapiens, UniProt O43353)
RIPK5 = target: T4, RIPK5 (Homo sapiens, UniProt Q6XUX3)
T4 construct: gene DSTYK

ROCK2 = ROCK2 (Homo sapiens, UniProt O75116)
[2] = target: T5, RSK4(Kin.Dom.2-C-terminal) (Homo sapiens, UniProt Q9UK32)
T5 construct: gene RPS6KA6; Kin.Dom.2-C-terminal

SRPK3 = SRPK3 (Homo sapiens, UniProt Q9UPE1)
STK16 = STK16 (Homo sapiens, UniProt O75716)
TLK1 = TLK1 (Homo sapiens, UniProt Q9UKI8)
p38-gamma = target: T6, p38-gamma (Homo sapiens, UniProt P53778)
T6 construct: gene MAPK12
T6 sequence (P53778 whole entry): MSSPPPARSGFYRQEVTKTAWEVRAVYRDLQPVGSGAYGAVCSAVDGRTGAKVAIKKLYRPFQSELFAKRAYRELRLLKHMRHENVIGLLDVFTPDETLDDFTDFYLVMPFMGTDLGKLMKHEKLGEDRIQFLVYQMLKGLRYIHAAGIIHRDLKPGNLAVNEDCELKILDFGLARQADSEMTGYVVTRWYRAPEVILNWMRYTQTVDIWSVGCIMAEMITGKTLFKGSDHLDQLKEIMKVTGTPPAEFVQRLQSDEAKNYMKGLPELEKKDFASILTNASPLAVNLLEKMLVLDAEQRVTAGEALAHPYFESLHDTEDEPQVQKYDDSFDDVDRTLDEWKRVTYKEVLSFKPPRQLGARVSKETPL

Chain of SRPK3 (Q9UPE1 whole entry): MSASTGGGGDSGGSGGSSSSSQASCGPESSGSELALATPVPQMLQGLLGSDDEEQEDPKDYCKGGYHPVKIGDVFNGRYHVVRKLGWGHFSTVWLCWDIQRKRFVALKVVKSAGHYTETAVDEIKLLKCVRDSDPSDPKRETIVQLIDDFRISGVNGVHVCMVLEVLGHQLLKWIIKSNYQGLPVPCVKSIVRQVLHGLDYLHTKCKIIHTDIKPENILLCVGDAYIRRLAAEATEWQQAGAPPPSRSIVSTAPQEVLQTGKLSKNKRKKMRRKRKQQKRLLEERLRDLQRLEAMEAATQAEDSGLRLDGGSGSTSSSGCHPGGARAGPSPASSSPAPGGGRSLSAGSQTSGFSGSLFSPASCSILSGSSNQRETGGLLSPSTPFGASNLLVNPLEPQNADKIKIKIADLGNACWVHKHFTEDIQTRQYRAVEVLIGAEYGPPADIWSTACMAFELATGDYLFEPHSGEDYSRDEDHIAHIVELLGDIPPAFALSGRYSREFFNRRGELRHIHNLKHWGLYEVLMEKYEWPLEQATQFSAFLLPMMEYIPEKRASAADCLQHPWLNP
T2 sequence (Q02750 whole entry): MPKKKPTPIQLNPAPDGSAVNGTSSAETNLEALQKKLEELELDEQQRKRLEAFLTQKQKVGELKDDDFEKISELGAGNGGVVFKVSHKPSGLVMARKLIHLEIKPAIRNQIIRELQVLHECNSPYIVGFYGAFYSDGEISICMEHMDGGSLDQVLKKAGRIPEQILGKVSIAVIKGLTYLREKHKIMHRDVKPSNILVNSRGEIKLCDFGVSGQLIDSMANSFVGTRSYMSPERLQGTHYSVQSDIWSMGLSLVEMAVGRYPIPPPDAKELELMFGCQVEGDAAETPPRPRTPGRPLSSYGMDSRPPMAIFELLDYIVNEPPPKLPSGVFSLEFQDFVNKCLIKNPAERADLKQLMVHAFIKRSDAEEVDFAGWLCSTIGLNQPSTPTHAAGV
Chain of PKMYT1 (Q99640 whole entry): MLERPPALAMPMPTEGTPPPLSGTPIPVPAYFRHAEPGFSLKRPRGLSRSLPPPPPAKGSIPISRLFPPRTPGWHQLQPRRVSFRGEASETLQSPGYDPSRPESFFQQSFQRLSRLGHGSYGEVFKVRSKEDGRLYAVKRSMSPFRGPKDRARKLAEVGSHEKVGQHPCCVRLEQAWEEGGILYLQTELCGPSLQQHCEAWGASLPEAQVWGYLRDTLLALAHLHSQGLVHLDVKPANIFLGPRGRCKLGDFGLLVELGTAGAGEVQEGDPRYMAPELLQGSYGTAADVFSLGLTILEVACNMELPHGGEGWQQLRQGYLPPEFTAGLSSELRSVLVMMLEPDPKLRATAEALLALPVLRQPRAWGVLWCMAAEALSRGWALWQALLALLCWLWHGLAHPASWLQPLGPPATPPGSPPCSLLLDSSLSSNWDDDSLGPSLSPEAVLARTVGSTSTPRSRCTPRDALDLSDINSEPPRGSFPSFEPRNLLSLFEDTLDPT
T4 sequence (Q6XUX3 whole entry): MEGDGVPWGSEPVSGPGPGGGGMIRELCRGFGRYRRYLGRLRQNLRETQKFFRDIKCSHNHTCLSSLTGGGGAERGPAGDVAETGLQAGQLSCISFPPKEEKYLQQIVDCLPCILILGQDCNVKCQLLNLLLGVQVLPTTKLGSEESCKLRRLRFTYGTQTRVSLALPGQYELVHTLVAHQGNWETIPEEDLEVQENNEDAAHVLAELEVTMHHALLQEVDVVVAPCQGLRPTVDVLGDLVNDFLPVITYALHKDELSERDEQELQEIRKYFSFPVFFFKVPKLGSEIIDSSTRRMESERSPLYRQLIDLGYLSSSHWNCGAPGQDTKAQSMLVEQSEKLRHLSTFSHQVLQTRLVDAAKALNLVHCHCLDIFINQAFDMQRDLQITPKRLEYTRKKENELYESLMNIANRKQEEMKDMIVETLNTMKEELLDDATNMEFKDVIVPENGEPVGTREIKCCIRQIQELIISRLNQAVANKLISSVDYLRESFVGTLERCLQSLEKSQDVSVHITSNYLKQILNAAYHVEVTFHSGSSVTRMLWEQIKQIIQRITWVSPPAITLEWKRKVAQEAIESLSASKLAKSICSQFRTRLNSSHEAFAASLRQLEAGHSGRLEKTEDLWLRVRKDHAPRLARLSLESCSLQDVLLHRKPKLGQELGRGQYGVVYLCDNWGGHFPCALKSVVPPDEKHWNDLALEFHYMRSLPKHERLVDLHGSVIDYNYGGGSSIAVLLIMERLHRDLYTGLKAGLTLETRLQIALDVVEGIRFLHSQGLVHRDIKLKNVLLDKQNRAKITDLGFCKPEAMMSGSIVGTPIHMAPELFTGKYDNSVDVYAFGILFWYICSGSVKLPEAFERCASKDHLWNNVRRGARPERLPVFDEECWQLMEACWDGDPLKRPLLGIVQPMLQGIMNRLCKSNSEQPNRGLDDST
Chain of FGFR2 (P21802 whole entry): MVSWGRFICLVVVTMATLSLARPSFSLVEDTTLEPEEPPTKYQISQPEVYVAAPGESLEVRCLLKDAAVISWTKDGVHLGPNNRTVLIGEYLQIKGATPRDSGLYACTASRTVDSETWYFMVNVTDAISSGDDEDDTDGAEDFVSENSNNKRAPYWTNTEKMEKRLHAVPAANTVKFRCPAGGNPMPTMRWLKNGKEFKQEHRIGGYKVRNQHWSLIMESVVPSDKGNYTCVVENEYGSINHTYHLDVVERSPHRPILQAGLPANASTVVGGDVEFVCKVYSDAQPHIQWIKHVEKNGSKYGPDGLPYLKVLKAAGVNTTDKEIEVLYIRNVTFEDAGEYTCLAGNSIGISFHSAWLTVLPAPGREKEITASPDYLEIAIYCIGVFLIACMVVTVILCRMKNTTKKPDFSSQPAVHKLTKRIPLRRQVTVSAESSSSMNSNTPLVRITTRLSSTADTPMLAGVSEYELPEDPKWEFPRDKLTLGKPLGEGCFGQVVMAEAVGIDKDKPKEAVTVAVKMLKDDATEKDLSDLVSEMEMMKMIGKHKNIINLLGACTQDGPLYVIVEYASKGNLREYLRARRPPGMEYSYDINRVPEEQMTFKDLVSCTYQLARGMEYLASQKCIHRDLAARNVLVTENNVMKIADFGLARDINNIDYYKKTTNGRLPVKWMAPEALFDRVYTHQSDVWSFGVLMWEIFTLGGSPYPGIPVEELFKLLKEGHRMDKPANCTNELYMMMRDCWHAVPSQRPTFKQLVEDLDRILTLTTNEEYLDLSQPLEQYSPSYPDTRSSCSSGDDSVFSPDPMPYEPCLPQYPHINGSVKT
Chain of PRKCD (Q05655 whole entry): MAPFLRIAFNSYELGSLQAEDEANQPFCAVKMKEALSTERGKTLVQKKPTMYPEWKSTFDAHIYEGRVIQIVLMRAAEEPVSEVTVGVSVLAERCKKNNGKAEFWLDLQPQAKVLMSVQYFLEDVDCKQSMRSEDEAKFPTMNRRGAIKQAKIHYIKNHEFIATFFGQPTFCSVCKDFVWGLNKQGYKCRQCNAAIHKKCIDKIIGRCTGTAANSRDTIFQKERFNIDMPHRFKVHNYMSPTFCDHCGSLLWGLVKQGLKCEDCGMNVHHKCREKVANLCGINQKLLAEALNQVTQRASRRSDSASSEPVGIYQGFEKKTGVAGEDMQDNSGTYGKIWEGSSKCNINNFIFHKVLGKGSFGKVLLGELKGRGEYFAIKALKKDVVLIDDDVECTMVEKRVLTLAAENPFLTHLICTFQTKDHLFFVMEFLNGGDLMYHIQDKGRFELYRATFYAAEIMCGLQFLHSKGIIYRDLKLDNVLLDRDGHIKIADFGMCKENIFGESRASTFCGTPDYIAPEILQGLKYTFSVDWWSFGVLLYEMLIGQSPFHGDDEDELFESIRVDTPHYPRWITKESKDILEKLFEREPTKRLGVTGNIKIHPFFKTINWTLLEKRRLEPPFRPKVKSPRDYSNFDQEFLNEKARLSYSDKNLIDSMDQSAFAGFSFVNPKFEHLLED
T3 sequence (Q9Y6E0 whole entry): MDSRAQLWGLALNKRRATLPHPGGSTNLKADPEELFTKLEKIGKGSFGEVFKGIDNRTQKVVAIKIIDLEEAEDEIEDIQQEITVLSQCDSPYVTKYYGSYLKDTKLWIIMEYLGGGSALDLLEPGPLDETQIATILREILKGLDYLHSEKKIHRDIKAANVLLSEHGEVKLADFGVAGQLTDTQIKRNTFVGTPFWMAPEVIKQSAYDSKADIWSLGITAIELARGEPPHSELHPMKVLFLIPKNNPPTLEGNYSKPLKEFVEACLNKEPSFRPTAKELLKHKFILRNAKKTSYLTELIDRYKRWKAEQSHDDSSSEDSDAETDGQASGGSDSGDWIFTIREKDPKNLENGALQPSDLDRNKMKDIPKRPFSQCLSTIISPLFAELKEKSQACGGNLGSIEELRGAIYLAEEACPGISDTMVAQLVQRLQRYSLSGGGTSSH
Chain of STK16 (O75716 whole entry): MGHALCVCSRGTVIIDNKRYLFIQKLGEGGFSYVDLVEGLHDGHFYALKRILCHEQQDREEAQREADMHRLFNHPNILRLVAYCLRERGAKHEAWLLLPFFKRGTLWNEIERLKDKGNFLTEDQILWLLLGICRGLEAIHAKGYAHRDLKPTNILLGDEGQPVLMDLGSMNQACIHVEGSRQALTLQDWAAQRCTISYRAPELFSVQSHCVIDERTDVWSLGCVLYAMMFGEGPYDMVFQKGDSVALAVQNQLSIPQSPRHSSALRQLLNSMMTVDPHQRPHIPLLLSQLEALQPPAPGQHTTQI

COc1cc2c(cn1)N(C)C(=O)[C@@H](NC(=O)c1nc3n(n1)[C@H](c1ccccc1)CC3)CC2 [GNE684, (S)-N-((S)-7-methoxy-1-methyl-2-oxo-2,3,4,5-tetrahydro-1H-pyrido[3,4-b]azepin-3-yl)-5-phenyl-6,7-dihydro-5H-pyrrolo[1,2-b][1,2,4]triazole-2-carboxamide]
remaining binding at 10 µM (ABL2): 100%
remaining binding at 10 µM (CAMK1): 91%
remaining binding at 10 µM (CDK7): 75%
remaining binding at 10 µM (EPHB6): 100%
remaining binding at 10 µM (FGFR2): 99%
remaining binding at 10 µM [1]: 48%
remaining binding at 10 µM (MEK1): 91%
remaining binding at 10 µM (MST3): 99%
remaining binding at 10 µM (NEK11): 100%
remaining binding at 10 µM (PKMYT1): 99%
remaining binding at 10 µM (PRKCD): 86%
remaining binding at 10 µM (RET): 98%
remaining binding at 10 µM (RIOK2): 28%
remaining binding at 10 µM (RIPK2): 100%
remaining binding at 10 µM (RIPK5): 48%
remaining binding at 10 µM (ROCK2): 100%
remaining binding at 10 µM [2]: 95%
remaining binding at 10 µM (SRPK3): 100%
remaining binding at 10 µM (STK16): 100%
remaining binding at 10 µM (TLK1): 97%
remaining binding at 10 µM (p38-gamma): 98%
